Measured values published in US12304912B2, “Fused bicyclic RAF inhibitors and methods for use thereof” (Jazz Pharmaceuticals Ireland Limited, priority 2020, dated 2025).

Tests used:
[1] = tested on: BRAF monomers in A375 cells; test: A375 AlphaLISA SureFire pERK1/2 cellular assay (monomer); format: cell-based; conditions: Homo sapiens, A-375; A375 cells, 1 hr; read-out: pERK A375 (1 hr) pIC50 (converted)
Summary of the method: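 BRAF^V600E A375 melanoma cells seeded at 30,000/well in DMEM with 10% FBS, dosed without medium exchange in a 10-point series from 10 μM at 1/2-log steps, 1 h at 37 °C. Phospho-ERK1/2 (Thr202/Tyr204) measured in lysates by AlphaLISA SureFire; absolute IC50 relative to DMSO control.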

[2] = tested on: constitutive ERK phosphorylation in WiDr cells; test: WiDr AlphaLISA SureFire pERK1/2 cellular assay; format: cell-based, human; conditions: Homo sapiens; WiDr cells, 2 hr, Abs; read-out: pERK WiDr (2 hr) Abs pIC50 (converted)
Procedure: The human HCT-116 colorectal carcinoma cell line (ATCC CCL-247) endogenously expresses the KRAS^G13D mutation, which leads to constitutive activation of the MAP kinase pathway and phosphorylation of ERK. […] Assay read outs took place 2 or 24 hours after dosing with compounds. On the first day, HCT-116 cells were harvested, resuspended in growth medium (McCoys5A with Glutamax (Life Technologies 36600021) and 10% heat-inactivated fetal bovine serum (Sigma F9665)), and counted. Cells were plated in 100 μl per well in each well of a 96-well culture dish (Sigma CLS3598) to a final density of 30,000 (2 hr read) or 15,000 (24 hr read) cells per well and incubated over night at 37° C. and 5% CO2. On day 2, the growth medium was exchanged for dosing medium (McCoys5A with Glutamax (Life Technologies 36600021) and 1% heat-inactivated fetal bovine serum (Sigma F9665)) and the cells were dosed with compounds to produce a 10-point dose response, where the top concentration was 1 μM and subsequent concentrations were at 1/3 log dilution intervals. A matched DMSO control was included. The cells were subsequently incubated for either 2 or 24 hours at 37° C. and 5% CO2. After incubation, media was removed and the cells were incubated with lysis buffer containing phosphatase inhibitors for 15 minutes at room temperature. Cell lysates were transferred to a 12 area 96 well white Optiplate™ (Perkin Elmer 6005569) and incubated with anti-mouse IgG acceptor beads, a biotinylated anti-ERK1/2 rabbit antibody recognizing both phosphorylated and non-phosphorylated ERK1/2, a mouse antibody targeted to the Thr202/Tyr204 epitope and recognizing phosphorylated ERK proteins only, and streptavidin-coated donor beads. The biotinylated antibody binds to the streptavidin-coated donor beads and the phopsho-ERK1/2 antibody binds to the acceptor beads. Plates were read on an EnVision reader (Perkin Elmer) and excitation of the beads at 680 nm with a laser induced the release of singlet oxygen molecules from the donor beads that trigger energy transfer to the acceptor beads in close proximity, producing a signal that can be measured at […]. Both antibodies bound to phosphorylated ERK proteins, bringing the donor and acceptor beads into close proximity. All data were analyzed using the Dotmatics or GraphPad Prism software packages. Inhibition of ERK phosphorylation was assessed by determination of the absolute IC50 value, which is defined as the concentration of compound required to decrease the level of phosphorylated ERK proteins by 50% when compared to DMSO control.
WiDr AlphaLISA SureFire pERK1/2 Cellular Assay
The human WiDr colorectal adenocarcinoma cell line (ATCC CCL-218) endogenously expresses the BRAF^V600E mutation, which leads to constitutive activation of the MAP kinase pathway and phosphorylation of ERK. […] The main procedure is essentially the same as for HCT-116 cells (above), with the following adjustments to the growth medium (Eagle's Minimum Essential Medium (Sigma M2279) with 1× Glutamax (Life Technologies 35050038), 1× Sodium-Pyruvate (Sigma S8636), and 10% heat-inactivated fetal bovine serum (Sigma F9665)), the dosing medium (Eagle's Minimum Essential Medium (Sigma M2279) with 1× Glutamax (Life Technologies 35050038), 1× Sodium-Pyruvate (Sigma S8636), and 1% heat-inactivated fetal bovine serum (Sigma F9665)), and the seeding densities (2 hr: 50,000 cells per well; 24 hr: 35,000 cells per well). Moreover, the compounds were dosed in 1/2 log dilution intervals with the top concentration of 10 μM.

[3] = Microsomal stability assay, human liver microsomes (HLM); format: in vitro ADME; conditions: 0.5 mg/mL protein, 1 μM substrate, 37° C.
Summary of the method: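 Substrate depletion: 1 μM compound incubated at 37° C. with cryopreserved mouse or human liver microsomes at 0.5 mg·mL^−1 protein. Timed aliquots quenched in ice-cold organic solvent and measured by LC-MS/MS; t1/2 and CLint derived from the slope of ln % remaining versus time.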

SMILES	IC50 [1] [nM]	IC50 [2] [nM]	microsomal CLint at 1 μM [3] [µL/min/mg]
Cn1nc(C(F)(F)F)cc1-c1c[nH]c(C2COc3ccc(Oc4ccnc5c4CCC(=O)N5)cc3C2)n1 (stereo not drawn) [Compound 107, 5-[3-[4-[2-methyl-5-(trifluoromethyl)pyrazol-3-yl]-1H-imidazol-2-yl]chroman-6-yl]oxy-3,4-dihydro-1H-1,8-naphthyridin-2-one]	178	209	30.3
Cc1ccc(-c2c[nH]c(C3COc4ccc(Oc5ccnc6c5CCC(=O)N6)cc4C3)n2)s1 (stereo not drawn) [Compound 110]	107	70.8	48.3
CCc1cc(-c2c[nH]c(C3COc4ccc(Oc5ccnc6c5CCC(=O)N6)cc4C3)n2)n(C)n1 (stereo not drawn) [Compound 111]	537	324	48.1
Cc1cc(-c2c[nH]c(C3COc4ccc(Oc5ccnc6c5CCC(=O)N6)cc4C3)n2)n(C(C)C)n1 (stereo not drawn) [Compound 112, 5-[3-[4-(2-isopropyl-5-methyl-pyrazol-3-yl)-1H-imidazol-2-yl]chroman-6-yl]oxy-3,4-dihydro-1H-1,8-naphthyridin-2-one]	1780	1000	81.5
CCc1cc(-c2c[nH]c(C3COc4ccc(Oc5ccnc6c5CCC(=O)N6)cc4C3)n2)n(C2CC2)n1 (stereo not drawn) [Compound 113, 5-[3-[4-(2-cyclopropyl-5-ethyl-pyrazol-3-yl)-1H-imidazol-2-yl]chroman-6-yl]oxy-3,4-dihydro-1H-1,8-naphthyridin-2-one]	4680	1480	82.1
Cc1cc(-c2c[nH]c(C3COc4ccc(Oc5ccnc6c5CCC(=O)N6)cc4C3)n2)n(C2CC2)n1 (stereo not drawn) [Compound 114, 5-[3-[4-(2-cyclopropyl-5-methyl-pyrazol-3-yl)-1H-imidazol-2-yl]chroman-6-yl]oxy-3,4-dihydro-1H-1,8-naphthyridin-2-one]	2570	1350	38.5
CC(C)(C)CCc1c[nH]c(C2COc3ccc(Oc4ccnc5c4CCC(=O)N5)cc3C2)n1 (stereo not drawn) [Compound 115, 5-[3-[4-(3,3-dimethylbutyl)-1H-imidazol-2-yl]chroman-6-yl]oxy-3,4-dihydro-1H-1,8-naphthyridin-2-one]	13.8	8.13	277
CC(C)CCc1c[nH]c(C2COc3ccc(Oc4ccnc5c4CCC(=O)N5)cc3C2)n1 (stereo not drawn) [Compound 116]	46.8	39.8	277
Cc1cc(-c2c[nH]c(C3COc4ccc(Oc5ccnc6c5CCC(=O)N6)cc4C3)n2)ccn1 (stereo not drawn) [Compound 117, 5-[3-[4-(2-methyl-4-pyridyl)-1H-imidazol-2-yl]chroman-6-yl]oxy-3,4-dihydro-1H-1,8-naphthyridin-2-one]	724	589	43.3
CCc1cc(-c2c[nH]c(C3COc4ccc(Oc5ccnc6c5CCC(=O)N6)cc4C3)n2)ccn1 (stereo not drawn) [Compound 118, 5-[3-[4-(2-ethyl-4-pyridyl)-1H-imidazol-2-yl]chroman-6-yl]oxy-3,4-dihydro-1H-1,8-naphthyridin-2-one]	631	398	81.2
COc1csc(-c2c[nH]c(C3COc4ccc(Oc5ccnc6c5CCC(=O)N6)cc4C3)n2)c1 (stereo not drawn) [Compound 122, 5-[3-[5-(4-methoxy-2-thienyl)-1H-imidazol-2-yl]chroman-6-yl]oxy-3,4-dihydro-1H-1,8-naphthyridin-2-one]	288	355	80.3
COc1ccsc1-c1c[nH]c(C2COc3ccc(Oc4ccnc5c4CCC(=O)N5)cc3C2)n1 (stereo not drawn) [Compound 123]	28.2	33.9	97.5
CCn1nc(C)cc1-c1c[nH]c(C2COc3ccc(Oc4ccnc5c4CCC(=O)N5)cc3C2)n1 (stereo not drawn) [Compound 124, 5-[3-[4-(2-ethyl-5-methyl-pyrazol-3-yl)-1H-imidazol-2-yl]chroman-6-yl]oxy-3,4-dihydro-1H-1,8-naphthyridin-2-one]	1070	661	65.8
Cc1cc(-c2c[nH]c(C3COc4ccc(Oc5ccnc6c5CCC(=O)N6)cc4C3)n2)n(CC(F)(F)F)n1 (stereo not drawn) [Compound 126, 5-[3-[4-[5-methyl-2-(2,2,2-trifluoroethyl)pyrazol-3-yl]-1H-imidazol-2-yl]chroman-6-yl]oxy-3,4-dihydro-1H-1,8-naphthyridin-2-one]	794	1020	121
Cn1ncc2ccc(-c3c[nH]c(C4COc5ccc(Oc6ccnc7c6CCC(=O)N7)cc5C4)n3)cc21 (stereo not drawn) [Compound 130, 5-[3-[4-(1-methylindazol-6-yl)-1H-imidazol-2-yl]chroman-6-yl]oxy-3,4-dihydro-1H-1,8-naphthyridin-2-one]	1000	603	23.6
O=C1CCc2c(Oc3ccc4c(c3)CC(c3nc(C5CCOCC5)c[nH]3)CO4)ccnc2N1 (stereo not drawn) [Compound 132, 5-[3-(4-tetrahydropyran-4-yl-1H-imidazol-2-yl)chroman-6-yl]oxy-3,4-dihydro-1H-1,8-naphthyridin-2-one]	759	832	20.7
O=C1CCc2c(Oc3ccc4c(c3)CC(c3nc5ccncc5[nH]3)CO4)ccnc2N1 (stereo not drawn) [Compound 134, 5-[3-(3H-imidazo[4,5-c]pyridin-2-yl)chroman-6-yl]oxy-3,4-dihydro-1H-1,8-naphthyridin-2-one]	> 1000	6170	13.6
O=C(Nc1cc(Oc2ccc3c(c2)CC(c2nc(-c4ccccc4)c[nH]2)CO3)ccn1)C1CC1(F)F (stereo not drawn) [Compound 137, 2,2-difluoro-N-[4-[3-(4-phenyl-1H-imidazol-2-yl)chroman-6-yl]oxy-2-pyridyl]cyclopropanecarboxamide]	191	74.1	32.6
c1ccc(-c2c[nH]c(C3COc4ccc(Oc5ccnc(Nc6ccccn6)c5)cc4C3)n2)cc1 (stereo not drawn) [Compound 140, 4-[3-(4-phenyl-1H-imidazol-2-yl)chroman-6-yl]oxy-N-(2-pyridyl)pyridin-2-amine]	5890	1260	48.7
Cc1c[nH]c(-c2cc(Oc3ccc4c(c3)CC(c3nc(-c5ccccc5)c[nH]3)CO4)ccn2)n1 (stereo not drawn) [Compound 143, 2-(4-methyl-1H-imidazol-2-yl)-4-[3-(4-phenyl-1H-imidazol-2-yl)chroman-6-yl]oxy-pyridine]	794	302	36.1
O=C(Cn1ccnc1)Nc1cc(Oc2ccc3c(c2)CC(c2nc(-c4ccccc4)c[nH]2)CO3)ccn1 (stereo not drawn) [Compound 144]	204	95.5	27.1
O=C(CN1CC[C@@H](O)C1)Nc1cc(Oc2ccc3c(c2)CC(c2nc(-c4ccccc4)c[nH]2)CO3)ccn1 (stereo partly drawn) [Compound 145]	537	331	57.2
CN1CCN(CC(=O)Nc2cc(Oc3ccc4c(c3)CC(c3nc(-c5ccccc5)c[nH]3)CO4)ccn2)CC1 (stereo not drawn) [Compound 146, 2-(4-methylpiperazin-1-yl)-N-[4-[3-(4-phenyl-1H-imidazol-2-yl)chroman-6-yl]oxy-2-pyridyl]acetamide]	372	398	33.4
